Experimental data: patent US20120004281A1, “RNA Interference Mediated Inhibition of the Nerve Growth Factor Beta Chain (NGFB) Gene Expression Using Short Interfering Nucleic Acid (siNA)” (Merck Sharp & Dohme Corp, priority 2009, published 2012)
[invAb] = inverted abasic unit; m = 2'-O-methyl; r = 2'-OH (RNA); f = 2'-fluoro

Test system: NGFβ mRNA
Assay: NGFβ mRNA knock-down in Calu-1 cells (RNAiMax transfection, Taqman RT-PCR)
Format: cell-based, human
Settings: human Calu-1 cells, 10 nM siNA, 24 hrs post-transfection, relative to non-targeting control, normalized to GAPDH
Description: Calu-1 (human; ATCC cat# HTB-54): Cells were cultured at 37° C. in the presence of 5% CO2 and grown in McCoy's 5a medium supplemented with fetal bovine serum at a final concentration of 10% and 100 μg/mL of streptomycin and 100 U/mL penicillin.
All transfections were performed using RNAiMax (Invitrogen Cat# 13778-150) as per the manufacturer's instructions.
Cells were plated in all wells of a tissue-culture treated, 96-well plate at a final count of 5,000 cells/well in […], of appropriate culture media. Cells were cultured for 24 hours after plating at 37° C. in the presence of 5% CO2.
After 24 hours, complexes containing siNA and RNAiMax were created as follows: A solution of RNAiMax diluted 33-fold in OPTI-MEM was prepared. In parallel, solutions of the siNAs for testing were prepared to a final concentration of 120 nM in OPTI-MEM. After incubation of RNAiMax/OPTI-MEM solution at room temperature for 5 min, an equal volume of the siRNA solution and the RNAiMax solution were added together for each of the siNAs.
This solution was incubated at room temperature for 20 minutes. After incubation, 20 uL of the solution was added to each of the relevant wells.
The final concentration of siNA in each well was 10 nM and the final volume of RNAiMax in each well was 0.3u1.
The time of incubation with the RNAiMax-siNA complexes was 24 hours, unless otherwise indicated. There was no change in media between the transfection and harvesting of the cells unless otherwise indicated.
Dose response curves were carried out in a similar fashion in 96-well plates, while maintaining a constant amount of RNAiMax in each transfection.
RNA was extracted from a 96-well plate using the TaqMan® Gene Expression Cells-to-CT™ Kit (Cat# 4399002) with a modified protocol. Briefly, a 60 uL (1 plate) or 110 uL (2 plates) of the Lysis Solution with DNase I was dispensed into each well of the Lysis Buffer Plate (twin.tec full skirt plate). The lysis buffer and stop plates were stored at 4° C. until the cells were washed.
The plate was spun at 1100 rpm for 5 minutes. The culture medium was aspirated and discarded from the wells of the culture plate. The lysis was performed automatically using a BioMek FX instrument and method. After the Biomek method was completed, the lysis plate was incubated for 2 min. at room temperature. The lysis plate can be stored for 2 hours at 4° C., or at −20° C. or −80° C. for two months.
Each well of the reverse transcription plate required 10 uL of 2× reverse transcriptase Buffer, luL of 20× reverse transcription enzyme and 2 uL of nuclease-free water. The reverse transcription master mix was prepared by mixing 2× reverse transcription buffer, 20× reverse transcription enzyme mix, and nuclease-free water. 13 uL of the reverse transcription master mix was dispensed into each well of the reverse transcription plate (semi-skirted). A separate reverse transcription plate was prepared for each cell plate. The plate was loaded onto a Biomek NX or Biomek FX Dual-96 and the Biomek method was run. The program is programmed to automatically added 7 uL of lysate from the cell lysis procedure described above into each well of the reverse transcription plate. The plate is sealed and spun on a centrifuge (1000 rpm for 30 seconds) to settle the contents to the bottom of the reverse transcription plate. The plate is placed in a thermocycler at 37° C. for 60 min, 95° C. for 5 min, and 4° C. until the plate is removed from the thermocycler. Upon removal, if not used immediately, the plate was frozen at −20° C.
A series of probes and primers were used to detect the various mRNA transcripts of the genes of NGFβ, BDNF and GAPDH in human cell lines. All the Taqman probes and primers for the experiments here-in described were supplied as pre-validated sets by Applied Biosystems, Inc. (see Table 3). The assays were performed on an ABI 7900 instrument, according to the manufacturer's instructions. […]

Substance | % KD in CaLu-1 Cells [%]
25402-DC: siNA duplex, NGFβ target site 651; sense B GAGAGGuGAAcAuuAAcAA TTB (SEQ ID NO: 29), antisense UUGuuAAuGuucAccucucUU (SEQ ID NO: 30) (sense GAGAGGUGAACAUUAACAATT; antisense UUGUUAAUGUUCACCUCUCUU; sense: DNA at AGT, 2'-fluoro at CU, [invAb] at 5' end, 3' end, backbone not given here; antisense: sugars from the 5' end rrrffmmfmfffmffffffmm, backbone not given here) | 53
25403-DC: siNA duplex, NGFβ target site 958; sense B ccuGuAAAuuAuuuuAAAu TTB (SEQ ID NO: 31), antisense AUUuAAAAuAAuuuAcAGGUU (SEQ ID NO: 32) (sense CCUGUAAAUUAUUUUAAAUTT; antisense AUUUAAAAUAAUUUACAGGUU; sense: DNA at AGT, 2'-fluoro at CU, [invAb] at 5' end, 3' end, backbone not given here; antisense: sugars from the 5' end rrrfmmmmfmmfffmfmmmmm, backbone not given here) | 60
25404-DC: siNA duplex, NGFβ target site 43; sense B cAGuGGucGuGcAGuccAA TTB (SEQ ID NO: 33), antisense UUGGAcuGcAcGAccAcuGUU (SEQ ID NO: 34) (sense CAGUGGUCGUGCAGUCCAATT; antisense UUGGACUGCACGACCACUGUU; sense: DNA at AGT, 2'-fluoro at CU, [invAb] at 5' end, 3' end, backbone not given here; antisense: sugars from the 5' end rrrmmffmfmfmmffmffmmm, backbone not given here) | 33
25405-DC: siNA duplex, NGFβ target site 124; sense B cAAGGGAGcAGcuuucuAu TTB (SEQ ID NO: 35), antisense AUAGAAAGcuGcucccuuGUU (SEQ ID NO: 36) (sense CAAGGGAGCAGCUUUCUAUTT; antisense AUAGAAAGCUGCUCCCUUGUU; sense: DNA at AGT, 2'-fluoro at CU, [invAb] at 5' end, 3' end, backbone not given here; antisense: sugars from the 5' end rrrmmmmmffmfffffffmmm, backbone not given here) | 31
25406-DC: siNA duplex, NGFβ target site 755; sense B cAcuGGAAcucAuAuuGuA TTB (SEQ ID NO: 37), antisense UACAAuAuGAGuuccAGuGUU (SEQ ID NO: 38) (sense CACUGGAACUCAUAUUGUATT; antisense UACAAUAUGAGUUCCAGUGUU; sense: DNA at AGT, 2'-fluoro at CU, [invAb] at 5' end, 3' end, backbone not given here; antisense: sugars from the 5' end rrrmmfmfmmmffffmmfmmm, backbone not given here) | 34
25407-DC: siNA duplex, NGFβ target site 518; sense B cAcAGGAGcAAGcGGucAu TTB (SEQ ID NO: 39), antisense AUGAccGcuuGcuccuGuGUU (SEQ ID NO: 40) (sense CACAGGAGCAAGCGGUCAUTT; antisense AUGACCGCUUGCUCCUGUGUU; sense: DNA at AGT, 2'-fluoro at CU, [invAb] at 5' end, 3' end, backbone not given here; antisense: sugars from the 5' end rrrmffmfffmfffffmfmmm, backbone not given here) | 47
